A word on the EC50: it is the concentration giving half of the maximal effect.

We go through 25 compounds from patent US20260285846A1, “REV-ERB AGONISTS FOR TH17-MEDIATED INFLAMMATORY DISORDERS” (UNIVERSITY OF FLORID RESEARCH FOUNDATION, iNCORPORATED, priority 2021, published 2026).

REV-ERBα LBD, sequence (P20393 with tags, fused parts or gaps DEL324-422): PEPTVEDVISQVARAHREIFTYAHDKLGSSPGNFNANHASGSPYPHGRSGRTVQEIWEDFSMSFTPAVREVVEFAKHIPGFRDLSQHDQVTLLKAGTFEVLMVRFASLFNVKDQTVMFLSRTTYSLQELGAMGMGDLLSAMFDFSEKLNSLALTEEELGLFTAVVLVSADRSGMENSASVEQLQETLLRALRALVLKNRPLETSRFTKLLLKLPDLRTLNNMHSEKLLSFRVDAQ
REV-ERBα LBD, sequence (Q9Y618 2335-2356 partner limits assumed): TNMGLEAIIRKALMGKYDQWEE

The experiment concerns the target REV-ERBα LBD (Homo sapiens, UniProt P20393, DEL324-422). Description: biochemical. The following applies: FRET assay; 6xHistag-REV-ERBα LBD with FITC-labeled SMRT corepressor peptide; read-out: REVERBα (Agonism of REV-ERBα, EC50). Here is the method: TR-FRET corepressor interaction assay. The time-resolved fluorescence resonance energy transfer (TR-FRET) assay was performed in black low-volume 384-well plates (Greiner). Each well contained 4 nM 6×Histag-REV-ERBα LBD (human; residues 281-614 A324-422) or 6×Histag-REV-ERBα LBD (human; residues 381-579) protein expressed in and purified from Escherichia coli using nickel affinity and size exclusion chromatography; 1 nM LanthaScreen Elite Tb-anti-HIS Antibody (Thermo Fisher Scientific); and 400 nM FITC-labeled peptide derived from the SMRT corepressor ([…]) containing a N-terminal FITC label with a six-carbon linker (Ahx) and an amidated C-terminus for stability (synthesized by LifeTein) in TR-FRET buffer (20 mM potassium phosphate, pH 7.4, 50 mM potassium chloride, 1 mM dithiothreitol, and 0.005% Tween-20). Ligand stocks were prepared via serial dilution in DMSO, added to wells in triplicate, and plates were incubated at 4° C. for 2 h and read using a BioTek Synergy Neo multimode plate reader. The Tb donor was excited at 340 nm; its fluorescence emission was monitored at 495 nm, and the acceptor FITC emission was measured at 520 nm; and the TR-FRET ratio was calculated as the signal at 520 nm divided by the signal at 495 nm. Data were plotted using GraphPad Prism as TR-FRET ratio vs. ligand concentration and fit to sigmoidal dose response curve equation.
Exemplary compounds of the present disclosure were assayed as described above to assess agonism of REV-ERBα. Results of the FRET assay are shown in Table 2 below (A: EC50<100 nM; B: EC50 100 nM-1000 nM; C: EC50>1000 nM; NT: not tested).
On to `CC(NS(=O)(=O)C1CC1)c1cn(CC(C)(C)C)c2cc(-c3ncccc3C(F)(F)F)c(F)cc12` (single isomer, unassigned) [Compound 17, (R or S)—N-(1-(5-fluoro-1-neopentyl-6-(3-(trifluoromethyl)pyridine-2-yl)-1H-indol-3-yl)ethyl)cyclopropane sulfonamide], for which the EC50 was 100 to 1000 nM. The result for `CC(NS(=O)(=O)C1CC1)c1cn(CC(C)(C)C)c2cc(-c3ncccc3C(F)(F)F)c(F)cc12` (single isomer, unassigned) [Compound 18, (S or R)—N-(1-(5-fluoro-1-neopentyl-6-(3-(trifluoromethyl)pyridine-2-yl)-1H-indol-3-yl)ethyl)cyclopropane sulfonamide] reads less than 100 nM. The result for `CC(NS(=O)(=O)C1CC1)c1cn(CC(C)(C)C)c2cc(-c3ncccc3C#N)c(F)cc12` (single isomer, unassigned) [Compound 19, (R or S)—N-(1-(6-(3-cyanopyridin-2-yl)-5-fluoro-1-neopentyl-1H-indol-3-yl)ethyl)cyclopropanesulfonamide] reads less than 100 nM; that for `CC(NS(=O)(=O)C1CC1)c1cn(CC(C)(C)C)c2cc(-c3ncccc3C#N)c(F)cc12` (single isomer, unassigned) [Compound 20, (S or R)—N-(1-(6-(3-cyanopyridin-2-yl)-5-fluoro-1-neopentyl-1H-indol-3-yl)ethyl)cyclopropanesulfonamide], 100 to 1000 nM. The result for `CC(NS(=O)(=O)C1CC1)c1cn(CC(C)(C)C)c2cc(C3CCOCC3)ccc12` (single isomer, unassigned) [Compound 23, (R or S) N-(1-(1-neopentyl-6-(tetrahydro-2H-pyran-4-yl)-1H-indol-3-yl)ethyl)cyclopropanesulfonamide] reads less than 100 nM.

Take `CC(NS(=O)(=O)C1CC1)c1cn(CC(C)(C)C)c2cc(C3CCOCC3)ccc12` (single isomer, unassigned) [Compound 24, (S or R) N-(1-(1-neopentyl-6-(tetrahydro-2H-pyran-4-yl)-1H-indol-3-yl)ethyl)cyclopropanesulfonamide]: the EC50 is 100 to 1000 nM. Take `CC(NS(=O)(=O)C1CC1)c1cn(CC(C)(C)C)c2cc(-c3c(F)cccc3C#N)ccc12` (single isomer, unassigned) [Compound 26, (R or S) N-(1-(6-(2-cyano-6-fluorophenyl)-1-neopentyl-1H-indol-3-yl)ethyl)cyclopropanesulfonamide]: the half-maximal effective concentration (EC50) lay within 100 to 1000 nM. The result for `CC(NS(=O)(=O)C1CC1)c1cn(CC(C)(C)C)c2cc(-c3c(F)cccc3C#N)ccc12` (single isomer, unassigned) [Compound 27, (S or R) N-[(1R)-1-[6-(2-cyano-6-fluoro-phenyl)-1-(2,2-dimethylpropyl)indol-3-yl]ethyl]cyclo] reads less than 100 nM; that for `CC(NS(=O)(=O)C1CC1)c1cn(CC(C)(C)C)c2cc(-c3cccnc3C(F)(F)F)c(F)cc12` (single isomer, unassigned) [Compound 28, N-[1-[1-(2,2-dimethylpropyl)-5-fluoro-6-[2-(trifluoromethyl)-3-pyridyl]indol-3-yl]ethyl]cyclopropanesulfonamide], less than 100 nM. As for `CC(NS(=O)(=O)C1CC1)c1cn(CC(C)(C)C)c2cc(-c3cccnc3C(F)(F)F)c(F)cc12` (single isomer, unassigned) [Compound 29, (S or R) N-[1-[1-(2,2-dimethylpropyl)-5-fluoro-6-[2-(trifluoromethyl)-3-pyridyl]indol-3-yl]ethyl]cyclopropanesulfonamide], the EC50 lay within 100 to 1000 nM. In the case of `CC(NS(=O)(=O)C1CC1)c1cn(CC(C)(C)C)c2cc(-c3cnccc3C#N)c(F)cc12` (single isomer, unassigned) [Compound 32, (R or S) N-(1-(6-(4-cyanopyridin-3-yl)-5-fluoro-1-neopentyl-1H-indol-3-yl)ethyl)cyclopropanesulfonamide], the concentration giving a half-maximal response (EC50) was less than 100 nM. The result for `CC(NS(=O)(=O)C1CC1)c1cn(CC(C)(C)C)c2cc(-c3cnccc3C#N)c(F)cc12` (single isomer, unassigned) [Compound 33, (S or R) N-(1-(6-(4-cyanopyridin-3-yl)-5-fluoro-1-neopentyl-1H-indol-3-yl)ethyl)cyclopropanesulfonamide] reads 100 to 1000 nM; that for `CC(C)(C)Cn1cc([C@H](NS(=O)(=O)C2CC2)C(F)(F)F)c2ccc(-c3ccccc3C#N)nc21` [Compound 1, (S)—N-(1-(6-(2-cyanophenyl)-1-neopentyl-1H-pyrrolo[2,3-b]pyridin-3-yl)-2,2,2-trifluoroethyl)cyclopropanesulfonamide], 100 to 1000 nM; that for `CC(C)(C)Cn1cc([C@H](NS(=O)(=O)C2CC2)C(F)(F)F)c2ccc(-c3cc(F)ccc3C#N)cc21` [Compound 2, (S)—N-(1-(6-(2-cyano-5-fluorophenyl)-1-neopentyl-1H-indol-3-yl)-2,2,2-trifluoroethyl)cyclopropanesulfonamide], 100 to 1000 nM.

As to `CC(C)(C)Cn1cc([C@H](NS(=O)(=O)C2CC2)C(F)(F)F)c2ccc(-c3cc(F)ccc3C(F)(F)F)cc21` [Compound 3, (S)—N-(2,2,2-trifluoro-1-(6-(5-fluoro-2-(trifluoromethyl)phenyl)-1-neopentyl-1H-indol-3-yl)ethyl)cyclopropanesulfonamide], the EC50 was less than 100 nM. The result for `CC(C)(C)Cn1cc([C@H](NS(=O)(=O)C2CC2)C(F)F)c2ccc(-c3ccc(F)cc3C(F)(F)F)nc21` [Compound 4, (S)—N-(2,2-difluoro-1-(6-(4-fluoro-2-(trifluoromethyl)phenyl)-1-neopentyl-1H-pyrrolo[2,3-b]pyridin-3-yl)ethyl)cyclopropanesulfonamide] reads less than 100 nM. The result for `CC(C)(C)Cn1cc([C@H](NS(=O)(=O)C2CC2)C(F)(F)F)c2cc(F)c(-c3ccccc3OC(F)(F)F)cc21` [Compound 5, (S)—N-(2,2,2-trifluoro-1-(5-fluoro-1-neopentyl-6-(2-(trifluoromethoxy)phenyl)-H-indol-3-yl)ethyl)cyclopropanesulfonamide] reads less than 100 nM; that for `COc1cccc(C#N)c1-c1ccc2c([C@H](NS(=O)(=O)C3CCC3)C(F)(F)F)cn(CC(C)(C)C)c2c1` [Compound 6, (S)—N-(1-(6-(2-cyano-6-methoxyphenyl)-1-neopentyl-1H-indol-3-yl)-2,2,2-trifluoroethyl)cyclobutanesulfonamide], 100 to 1000 nM. The result for `COc1cccc(C#N)c1-c1ccc2c([C@H](NS(=O)(=O)C3CC3)C(F)(F)F)cn(CC(C)(C)C)c2c1` [Compound 7, (S)—N-(1-(6-(2-cyano-6-methoxyphenyl)-1-neopentyl-1H-indol-3-yl)-2,2,2-trifluoroethyl)cyclopropanesulfonamide] reads 100 to 1000 nM; that for `CC(C)(C)Cn1cc([C@H](NS(=O)(=O)C2CC2)C(F)(F)F)c2cc(F)c(-c3cccnc3C(F)(F)F)cc21` [Compound 8, (S)—N-(2,2,2-trifluoro-1-(5-fluoro-1-neopentyl-6-(2-(trifluoromethyl)pyridin-3-yl)-1H-indol-3-yl)ethyl)cyclopropanesulfonamide], 100 to 1000 nM. Regarding `CC(C)(C)Cn1cc([C@H](NS(=O)(=O)C2CC2)C(F)(F)F)c2cc(F)c(-c3ncccc3C(F)(F)F)cc21` [Compound 9, (S)—N-(2,2,2-trifluoro-1-(5-fluoro-1-neopentyl-6-(3-(trifluoromethyl)pyridin-2-yl)-1H-indol-3-yl)ethyl)cyclopropanesulfonamide], the EC50 is 100 to 1000 nM.

Regarding `CC(C)(C)Cn1cc([C@H](NS(=O)(=O)C2CC2)C(F)(F)F)c2cc(F)c(-c3ncccc3C#N)cc21` [Compound 10, (S)—N-(1-(6-(3-cyanopyridin-2-yl)-5-fluoro-1-neopentyl-1H-indol-3-yl)-2,2,2-trifluoroethyl)cyclopropanesulfonamide], the EC50 lay within 100 to 1000 nM. The result for `CC(C)(C)Cn1cc([C@H](NS(=O)(=O)C2CC(F)(F)C2)C(F)F)c2ccc(-c3ccccc3C(F)(F)F)cc21` [Compound 11, (S)—N-(2,2-difluoro-1-(1-neopentyl-6-(2-(trifluoromethyl)phenyl)-1H-indol-3-yl)ethyl)-3,3-difluorocyclobutane-1-sulfonamide] reads less than 100 nM; that for `Cc1ccccc1-c1cc2c(cc1F)c([C@H](NS(=O)(=O)C1CC1)C(F)F)cn2CC(C)(C)C` [Compound 12, (S)—N-(2,2-difluoro-1-(5-fluoro-1-neopentyl-6-(o-tolyl)-1H-indol-3yl)ethyl)cyclopropanesulfonamide], less than 100 nM; that for `CC(C)(C)Cn1cc([C@H](NS(=O)(=O)C2CC2)C(F)F)c2ccc(-c3cccnc3C(F)(F)F)cc21` [Compound 13, (S)—N-(2,2-difluoro-1-(1-neopentyl-6-(2-(trifluoromethyl)pyridin-3-yl)-1H-indol-3-yl)ethyl)cyclopropanesulfonamide], less than 100 nM.
